Like-named read-outs stand apart in the source and are kept apart here.

In assay [1] the target is T1, human muscarinic M1 receptor (Homo sapiens, UniProt P11229).
T1 sequence (P11229 1-460): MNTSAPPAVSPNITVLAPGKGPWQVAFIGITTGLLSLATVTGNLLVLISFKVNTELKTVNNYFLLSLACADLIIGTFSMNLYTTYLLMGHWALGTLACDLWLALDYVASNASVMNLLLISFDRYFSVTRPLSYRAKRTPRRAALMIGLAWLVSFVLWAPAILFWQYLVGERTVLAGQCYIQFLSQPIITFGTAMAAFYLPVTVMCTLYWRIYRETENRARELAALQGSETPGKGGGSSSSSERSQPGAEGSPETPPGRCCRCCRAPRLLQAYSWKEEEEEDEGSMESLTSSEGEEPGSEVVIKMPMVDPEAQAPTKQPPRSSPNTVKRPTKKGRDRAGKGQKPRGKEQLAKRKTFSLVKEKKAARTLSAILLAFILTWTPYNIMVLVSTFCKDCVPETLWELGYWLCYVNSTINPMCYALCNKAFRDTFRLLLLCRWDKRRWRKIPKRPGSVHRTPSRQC
Nature of the assay: Alphascreen Surefire phospho-ERK1/2 functional assay, M1. The class given is cell-based. The settings on record: for EC50: phospho-ERK1/2; for Emax: CHO, read-out: % Emax cf. ACh, M1, CHO cells stably expressing human M1; for Emax / % Emax cf. ACh, M1: Emax relative to ACh. The procedure: (§1) Functional assays were performed using the Alphascreen Surefire phospho-ERK1/2 assay (Crouch & Osmond, Comb. Chem. High Throughput Screen, 2008). ERK1/2 phosphorylation is a downstream consequence of both Gq/11 and Gi/o protein coupled receptor activation, making it highly suitable for the assessment of M1, M3 (Gq/11 coupled) and M2, M4 receptors (Gi/o coupled), rather than using different assay formats for different receptor subtypes. CHO cells stably expressing the human muscarinic M1, M2, M3 or M4 receptor were plated (25K/well) onto 96-well tissue culture plates in MEM-alpha+10% dialysed FBS. Once adhered, cells were serum-starved overnight. Agonist stimulation was performed by the addition of 5 μL agonist to the cells for 5 min (37° C.). Media was removed and 50 μL of lysis buffer added. After 15 min, a 4 μL sample was transferred to 384-well plate and 7 μL of detection mixture added.
For the vast majority of examples at least two diastereomers exist and these have been separated, unless otherwise stated, using the techniques of reversed phase HPLC, chiral HPLC or chiral SFC. Isomer assignment (Isomer 1, Isomer 2, etc.) is based on the retention time of the compound using the separation technique that was performed in the final purification step. By implication, this could be reversed phase HPLC, chiral HPLC or chiral SFC retention time, and this will vary from compound to compound.
A general note: Alpha assays give light when donor and acceptor beads are brought close together.

For assay [2], the target named is T2, human muscarinic M4 receptor (Homo sapiens, UniProt P08173).
T2 sequence (P08173 1-479): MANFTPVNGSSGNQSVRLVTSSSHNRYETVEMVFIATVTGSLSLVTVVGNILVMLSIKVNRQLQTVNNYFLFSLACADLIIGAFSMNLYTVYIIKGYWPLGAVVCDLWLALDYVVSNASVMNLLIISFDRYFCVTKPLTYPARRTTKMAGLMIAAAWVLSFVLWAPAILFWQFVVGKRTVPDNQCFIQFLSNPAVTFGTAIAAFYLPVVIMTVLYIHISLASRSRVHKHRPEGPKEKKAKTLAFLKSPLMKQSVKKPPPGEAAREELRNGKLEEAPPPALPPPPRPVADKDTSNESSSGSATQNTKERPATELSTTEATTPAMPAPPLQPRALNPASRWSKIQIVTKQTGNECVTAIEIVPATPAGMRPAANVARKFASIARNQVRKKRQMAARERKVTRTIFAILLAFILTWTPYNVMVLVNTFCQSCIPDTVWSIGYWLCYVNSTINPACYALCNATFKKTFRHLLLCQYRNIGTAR
Nature of the assay: Alphascreen Surefire phospho-ERK1/2 functional assay, M4. The class given is cell-based. The settings on record: for EC50: phospho-ERK1/2; for Emax: CHO, read-out: % Emax cf. ACh, M4, CHO cells stably expressing human M4; for Emax / % Emax cf. ACh, M4: Emax relative to ACh. As for the experimental part:
as §1, with “ERK1/2” for “Functional assays were performed using the Alphascreen Surefire phospho-ERK1/2 assay (Crouch & Osmond, Comb. Chem. High Throughput Screen, 2008). ERK1/2”
Isomer assignment (Isomer 1, Isomer 2, etc.) is based on the retention time of the compound using the separation technique that was performed in the final purification step. By implication, this could be reversed phase HPLC, chiral HPLC or chiral SFC retention time, and this will vary from compound to compound.

Where [3] appears, read: CHO cells stably expressing human M1, read-out: pEC50 M1 (converted).
Setting [4] is: CHO cells stably expressing human M4, read-out: pEC50 M4 (converted).
The mark [5] stands for this setting: CHO cells stably expressing human M1.
Setting [6] is: CHO cells stably expressing human M4.
Where [7] appears, read: pEC50 M1, CHO cells stably expressing human M1.
The mark [8] stands for this setting: pEC50 M4, CHO cells stably expressing human M4.

The Emax is the size of the effect at its maximum, as opposed to the concentration needed. Consider `CCOC(=O)N1C2COCC1CC(N1CCC(c3cccc(OC)n3)CC1)C2` (single isomer, unassigned) [Example 2-1 Isomer 1, Ethyl 7-[4-(6-methoxypyridin-2-yl)piperidin-1-yl]-3-oxa-9-azabicyclo[3.3.1]nonane-9-carboxylate], for which the EC50 in assay [1] (setting [3]) was 251 nM; in assay [2] (setting [4]), more than 20000 nM. Further, the maximum response (Emax) in assay [1] came out at 44%; in assay [2] it was 17%.
`CCOC(=O)N1C2COCC1CC(N1CCC(c3cccc(OC)n3)CC1)C2` (single isomer, unassigned) [Example 2-1 Isomer 2, Ethyl 7-[4-(6-methoxypyridin-2-yl)piperidin-1-yl]-3-oxa-9-azabicyclo[3.3.1]nonane-9-carboxylate]: the “% Emax cf. ACh, M1” value in assay [1] (setting [5]) is given as 40%. Further, in assay [1] (setting [3]), the EC50 is 158 nM. The “% Emax cf. ACh, M4” value in assay [2] (setting [6]) was determined as 20%.
Regarding `CCOC(=O)N1C2COCC1CC(N1CCC(C#N)(c3ccccn3)CC1)C2` (single isomer, unassigned) [Example 3-1 Isomer 1, Ethyl 7-[4-cyano-4-(pyridin-2-yl)piperidin-1-yl]-3-oxa-9-azabicyclo[3.3.1]nonane-9-carboxylate], the EC50 in assay [1] (setting [3]) was 1380 nM; in assay [2] (setting [4]), 129 nM. Besides, the Emax in assay [1] was found to be 97%; in assay [2] it was 94%.
Take `CCOC(=O)N1C2COCC1CC(N1CCC(C#N)(c3ccccn3)CC1)C2` (single isomer, unassigned) [Example 3-1 Isomer 2, Ethyl 7-[4-cyano-4-(pyridin-2-yl)piperidin-1-yl]-3-oxa-9-azabicyclo[3.3.1]nonane-9-carboxylate]: the “% Emax cf. ACh, M1” value in assay [1] (setting [5]) is recorded as 79%. Moreover, the “% Emax cf. ACh, M4” value in assay [2] (setting [6]) amounted to 78%. Moreover, in assay [2] (setting [4]), the EC50 is 309 nM.
On to `CCOC(=O)N1C2COCC1CC(N1CCC3(CC1)CNC(=O)C3)C2` (single isomer, unassigned) [Example 5-2 Isomer 1, Ethyl 7-(3-oxo-2,8-diazaspiro[4.5]dec-8-yl)-3-oxa-9-azabicyclo[3.3.1]nonane-9-carboxylate], for which, in assay [1] (CHO cells stably expressing human M1, listed as 5-2 Isomer 1), the “% Emax cf. ACh, M1” value was found to be 82%. Besides, the figures for the EC50 in assay [1] (setting [7]) and in assay [2] (setting [8]) were 316 nM and 302 nM, respectively. For the same compound, in assay [2], the Emax was 36%.
With `CCOC(=O)N1C2COCC1CC(N1CCC3(CC1)CNC(=O)O3)C2` (single isomer, unassigned) [Example 5-3 Isomer 1, Ethyl 7-(2-oxo-1-oxa-3,8-diazaspiro[4.5]dec-8-yl)-3-oxa-9-azabicyclo[3.3.1]nonane-9-carboxylate], the EC50 in assay [1] (setting [3]) was 1450 nM; in assay [2] (setting [4]), 832 nM. For the same compound, the figures for the maximum response (Emax) in assay [1] and in assay [2] were 75% and 33%, respectively.
In the case of `CCOC(=O)N1C2COCC1CC(N1CCC3(CC1)OC(=O)NC3CC)C2` (single isomer, unassigned) [Example 5-4 Isomer 1b, Ethyl 7-(4-ethyl-2-oxo-1-oxa-3,8-diazaspiro[4.5]dec-8-yl)-3-oxa-9-azabicyclo[3.3.1]nonane-9-carboxylate], in assay [1] (CHO cells stably expressing human M1, listed as 5-4 Isomer 1b), the “% Emax cf. ACh, M1” value stood at 9%. Further, the EC50 in assay [1] (setting [7]) is more than 20000 nM; in assay [2] (setting [8]) it was 316 nM. The “% Emax cf. ACh, M4” value in assay [2] (CHO cells stably expressing human M4, listed as 5-4 Isomer 1b) is reported as 30%.
With `CCOC(=O)N1C2COCC1CC(N1CCC3(CC1)OC(=O)NC3CC)C2` (single isomer, unassigned) [Example 5-4 Isomer 2a, Ethyl 7-(4-ethyl-2-oxo-1-oxa-3,8-diazaspiro[4.5]dec-8-yl)-3-oxa-9-azabicyclo[3.3.1]nonane-9-carboxylate], the “% Emax cf. ACh, M1” value in assay [1] (CHO cells stably expressing human M1, listed as 5-4 Isomer 2a) is recorded as 75%. Besides, the EC50 in assay [1] (setting [7]) is 977 nM; in assay [2] (setting [8]), 200 nM. The “% Emax cf. ACh, M4” value in assay [2] (CHO cells stably expressing human M4, listed as 5-4 Isomer 2a) was determined as 61%.
Take `CCOC(=O)N1C2COCC1CC(N1CCC(N(CC(C)(C)C)C(C)=O)CC1)C2` (single isomer, unassigned) [Example 6-2 Isomer 1, Ethyl 7-{4-[acetyl(2,2-dimethylpropyl)amino]piperidin-1-yl}-3-oxa-9-azabicyclo[3.3.1]nonane-9-carboxylate]: the EC50 in assay [1] (setting [3]) is 617 nM; in assay [2] (setting [4]), 1050 nM. Moreover, the Emax in assay [1] amounted to 71%; in assay [2], 45%.
Consider `CCOC(=O)N1C2COCC1CC(N1CCC(C(=O)NC3(C)CCC3)CC1)C2` (single isomer, unassigned) [Example 7-1 Isomer 1, Ethyl 7-{4-[(1-methylcyclobutyl)carbamoyl]piperidin-1-yl}-3-oxa-9-azabicyclo[3.3.1]nonane-9-carboxylate], for which, in assay [1] (CHO cells stably expressing human M1, listed as 7-1 Isomer 1), the “% Emax cf. ACh, M1” value stood at 91%. Besides, the EC50 in assay [1] (setting [3]) was 380 nM; in assay [2] (setting [4]) it was 324 nM. Besides, in assay [2] (CHO cells stably expressing human M4, listed as 7-1 Isomer 1), the “% Emax cf. ACh, M4” value was 76%.
Regarding `CCOC(=O)N1C2COCC1CC(N1CCC(C(=O)NC3(C)CCC3)CC1)C2` (single isomer, unassigned) [Example 7-1 Isomer 2, Ethyl 7-{4-[(1-methylcyclobutyl)carbamoyl]piperidin-1-yl}-3-oxa-9-azabicyclo[3.3.1]nonane-9-carboxylate], the “% Emax cf. ACh, M1” value in assay [1] (CHO cells stably expressing human M1, listed as 7-1 Isomer 2) is 62%. The results for the EC50 in assay [1] (setting [3]) and in assay [2] (setting [4]) were 1740 nM and more than 20000 nM, respectively. The “% Emax cf. ACh, M4” value in assay [2] (CHO cells stably expressing human M4, listed as 7-1 Isomer 2) was determined as 54%.
As to `CCOC(=O)N1C2COCC1CC(N1CCC(C(=O)NCC(C)C)CC1)C2` (single isomer, unassigned) [Example 7-2 Isomer 1, Ethyl 7-{4-[(2-methylpropyl)carbamoyl]piperidin-1-yl}-3-oxa-9-azabicyclo[3.3.1]nonane-9-carboxylate], the Emax in assay [1] is 96%; in assay [2], 72%. Also, the EC50 in assay [1] (setting [7]) was 79.4 nM; in assay [2] (setting [8]), 457 nM.
In the case of `CCOC(=O)N1C2COCC1CC(N1CCC(C(=O)N3CCCCCC3)CC1)C2` (single isomer, unassigned) [Example 7-4 Isomer 1, Ethyl 7-[4-(azepan-1-ylcarbonyl)piperidin-1-yl]-3-oxa-9-azabicyclo[3.3.1]nonane-9-carboxylate], the figures for the EC50 in assay [1] (setting [3]) and in assay [2] (setting [4]) were 550 nM and more than 20000 nM, respectively. Besides, the values for the maximal response (Emax) in assay [1] and in assay [2] were 85% and 65%, respectively.
